Assay results as given in patent publication US20230218589A1, “COMPOUND FOR PREVENTION OR TREATMENT OF A SKIN CANCER OR SKIN PRECANCER” (UNIQUEST PTY LTD, priority 2020, published 2023).

How the values were obtained:
[1] = test system: 5117-RE (spindle cell sarcoma) cells; test: Mouse back 5117-RE tumour model (spindle cell sarcoma, Kaposi sarcoma model); assay type: in vivo
Experimental: Tacrolimus diet: All customised mice diet was manufactured by Specialty Feeds (Perth, Wash.). Briefly, tacrolimus (MedChemExpress) was mixed with caster sugar and then incorporated into standard mouse diet. […] Food colouring was added to distinguish the drug. During the manufacturing process the pellets were air-dried overnight rather than dried in an oven in order to minimise the amount of heat applied. The final product was sealed in airtight bags and stored at 4° C. protected from light to ensure minimal degradation. Pellet volumes in feed hoppers were kept to a minimum and restocked every 3-4 days for the duration of the experiments.
Compound 1 preparation: Compound 1 (Cmpd 1) was prepared at the beginning of each dosing week as a 1 or 2 mg/mL solution as required in 4% ethanol/0.2% Tween-80/PBS. Compound 1 solution was stored at 4° C. for up to one week.
Mouse back 5117-RE tumour model: Method as per the above section (Mouse back cSCC tumour model), with the following changes; BALBc mice were used, and 5117-RE cells were cultured and passaged for 1 week prior to tumour cell injection in RPMI media (Gibco) supplemented with 10% heat inactivated FBS (Gibco) and 1× Penicillin/Streptomycin/Glutamine (Gibco).
Dissociation of tumour cells for FACS analysis: To release cells from tumours, harvested tissue was cut into small fragments and digested for 60 min at 37° C. in RPMI media containing 2% FBS, 3 mg/mL collagenase D and 5 ug/mL DNase I. Tissues were then gently pressed through a 70 μm cell strainer to create a single-cell suspension. […]
FACS analysis: Stained tumour dissociated cells were then washed twice, resuspended in FACS buffer and Flow cytometric analysis was performed using LSR Fortessa X20 (BD Biosciences) flow cytometers with FACSDiva. software (Becton Dickinson, Sparks, Md., USA). Data were exported and analyzed using FlowJo software (I'reestar Inc., Ashland, Oreg., USA).
Mice were injected sub-cutaneously with 1×10^6 5117-RE (spindle cell sarcoma) cells into the lower back and tumour size was monitored 3 times a week throughout the experiment. […]

[2] = Single dose pharmacokinetics after topical application to mouse ear; assay type: in vivo; conditions: single topical 10 μL of 3% solution in propylene glycol to ear, LOQ 3.5 ng/mL
Experimental: The single dose pharmacokinetics of Compound 1 (Cmpd 1) was assessed by topical administration of the compound as a formulation in propylene glycol (3% concentration) applied once per day (QD) to one ear only of C57BL/6 female mice, 8 weeks of age (N=2 or 3 per timepoint; samples taken 1, 6 and 24 h post administration of Compound 1).
Compound Application: Compound 1 (10 μL of a 3% solution in propylene glycol) was applied to mouse ears using a silicone brush. The brush was cleaned with distilled water and ethanol between applications. The vehicle solution was 100% propylene glycol.
Blood processing: Cryovials were prepared containing 10 μL 0.5 M EDTA and labelled appropriately. Cardiac bleed was performed on mice and blood transferred to an Eppendorf tube. Blood (110 μL) was transferred immediately to a cryovial containing EDTA and well mixed to prevent clotting. The cryovial was placed on dry ice and transferred to a −80° C. freezer.
Ear processing: Before taking ears for pharmacokinetics the skin was cleaned with distilled water and dried with cotton balls/swab before doing 2 tape strips (one piece of tape per strip). The whole ear was removed from the mouse. The weight of the whole ear was recorded and placed into an appropriate cryovial which was placed on dry ice then transferred to a −80° C. freezer.
Sample processing: A LC/MS/MS based bioanalytical method was developed for the detection and quantification of Compound 1 in mouse blood and ears. Calibration standards and quality control samples were prepared by adding 2.5 μL of stock solutions of test compound of different concentrations into 25 μL of naïve mouse blood or ear homogenates. Control samples were prepared by spiking 2.5 μL, of water or acetonitrile into 25 μL of naïve mouse blood or ear homogenates. The blood or ear samples were transferred into polypropylene Eppendorf tubes. […] 20-40 μL of the supernatant was analysed by LCMS/MS, using the same instrument, column, Mobile phase A, Mobile phase B, gradient and other parameters as outlined above for the tumour sample processing.

For `CC[C@@H]1/C=C(\C)[C@@H](O)[C@H](C)C[C@H](OC)[C@H]2O[C@@](O)(C(=O)C(=O)N3CCCC[C@H]3C(=O)O[C@H](/C(C)=C/[C@@H]3CC[C@@H](O)[C@H](OC)C3)[C@H](C)[C@@H](O)CC1=O)[C@H](C)C[C@@H]2OC` [Compound 1, 17-Ethyl-1,14,20-trihydroxy-12-[2′-(4″-hydroxy-3″-methoxycyclohexyl)-1′-methylvinyl]-23,25-dimethoxy-13,19,21,27-tetramethyl-11,28-dioxa-4-azatricyclo-[22.3.1.0^4,9]octacos-18-ene-2,3,10,16-tetraone], the “tacrolimus dependent-tumour growth compared to the vehicle control” value ([1]; BALBc mice, BID IT 40 μL of 2 mg/mL, after 10 days treatment, tacrolimus 150 ppm diet) was “significantly reduced”, the “percentage of TNF alpha+ CD8 T cells isolated from the tumour” value ([1]; after 13 days treatment) was “significantly increased” and the “percentage of IFN gamma+ CD8 T cells isolated from the tumour” value ([1]; after 13 days treatment, ex vivo stimulation with CD3/CD28) was “significantly increased”. The Concentration in blood ([2]; 1 h) was “BLQ”, the Concentration in blood ([2]; 6 h) was “BLQ” and the Concentration in blood ([2]; 24 h) was “BLQ”.
